Experimental data published in patent US6890923B2, “Compounds” (AstraZeneca AB, priority 2002, dated 2005).

melting point	Compound
165 to 167 °C	CC(C)Cn1c(=O)n(C)c(=O)c2c(CCC(=O)O)c(Cc3ccccc3C(F)(F)F)sc21 [Example 28, 1,2,3,4-Tetrahydro-3-methyl-1-(2-methylpropyl)-2,4-dioxo-6-[[2-(trifluoromethyl)phenyl]methyl]-thieno[2,3-d]pyrimidine-5-propanoic acid]
113 to 114 °C	CC(C)Cn1c(=O)n(C)c(=O)c2c(-c3ccsc3)c(Cc3ccccc3C(F)(F)F)sc21 [Example 6, 3-Methyl-1-(2-methylpropyl)-5-(3-thienyl)-6-[[2-(trifluoromethyl)phenyl]methyl]-thieno[2,3-d]pyrimidine-2,4(1H,3H)-dione]
